# Data as given in patent publication US9439438B2 (priority 2011, dated 2016).
# Where two headings read alike, the source gives them in different places.
# Key:
# GPP130 [1] = molecular target: T1, GPP130 (Homo sapiens, UniProt O00461); format: cell-based
# T1 sequence (O00461 1-696): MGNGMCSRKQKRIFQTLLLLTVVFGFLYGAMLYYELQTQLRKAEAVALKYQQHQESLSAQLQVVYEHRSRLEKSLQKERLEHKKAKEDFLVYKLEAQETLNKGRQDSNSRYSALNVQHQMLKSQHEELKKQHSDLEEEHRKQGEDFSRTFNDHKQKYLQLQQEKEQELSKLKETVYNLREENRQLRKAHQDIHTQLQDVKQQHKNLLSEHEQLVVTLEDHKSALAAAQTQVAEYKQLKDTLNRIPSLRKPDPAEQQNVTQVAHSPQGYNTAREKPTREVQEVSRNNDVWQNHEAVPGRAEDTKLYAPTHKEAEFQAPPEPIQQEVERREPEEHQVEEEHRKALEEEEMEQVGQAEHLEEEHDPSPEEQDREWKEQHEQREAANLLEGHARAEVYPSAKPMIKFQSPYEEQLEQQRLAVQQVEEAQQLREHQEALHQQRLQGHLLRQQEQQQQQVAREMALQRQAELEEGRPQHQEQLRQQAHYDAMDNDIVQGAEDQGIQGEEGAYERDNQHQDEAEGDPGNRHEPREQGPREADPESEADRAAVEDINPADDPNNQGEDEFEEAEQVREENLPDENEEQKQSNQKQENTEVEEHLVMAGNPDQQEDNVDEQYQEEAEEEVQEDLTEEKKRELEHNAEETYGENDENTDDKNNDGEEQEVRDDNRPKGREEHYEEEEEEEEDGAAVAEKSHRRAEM
# mice [2] = conditions: mouse, in vivo, ip, 100 mg/kg
# HeLa cells [3] = format: cell-based
# HeLa cells [4] = format: cell-based; remark: listed apart in the source
# mice [5] = conditions: mouse, in vivo, ip
# HeLa cells [6] = tested on: HeLa cells
# [7] = in vivo; cited from earlier work
# GPP130 [8] = molecular target: T1, GPP130; format: cell-based; remark: listed apart in the source
# [9] = tested on: vesicular stomatitis virus G protein; format: cell-based
# HeLa cells [10] = tested on: HeLa cells; remark: listed apart in the source
# HeLa cells [11] = format: cell-based; remark: listed apart in the source
# HeLa cells [12] = format: cell-based; remark: listed apart in the source
# mice [13] = conditions: mouse, in vivo
smiles,measurement,setting,value
"[Cl][Mn][Cl] [Mn, MnCl2]",sorting of STxB into endosomal tubules,GPP130 [1],abolished
same,"body weight, locomotor activity and demeanor",mice [2],"significantly lost weight, exhibited a depressed, lethargic attitude accompanied with diminished locomotor activity"
same,"localization or trafficking of GP73, TGN46 and Lamp2",HeLa cells [3],did not alter
same,cellular STxB level (toxin degradation),HeLa cells [4],dramatic loss of STxB
same,time at which STxB is degraded in Mn-treated cells,HeLa cells [4],1 to 2 h
same,apparent LD50,mice [5],125 mg/kg
same,paralysis and lethality,mice [5]; 100 mg/kg,Paralysis and lethality were not seen at any time
same,paralysis and lethality,mice [5]; 150 mg/kg,got paralyzed within a few hours and were then euthanized
same,paralysis and lethality,mice [5]; 250 mg/kg,got paralyzed within minutes and died
same,paralysis and lethality,mice [5]; 500 mg/kg,got paralyzed within minutes and died
same,"STx1 concentration, relative to the LD50, at which 50% cell death was not evident",HeLa cells [6],> 2000 fold
same,estimated protection factor,HeLa cells [6],3800
same,protection against STx-induced cell death,HeLa cells [6],3800 fold
same,viability with Mn by itself,HeLa cells [6],did not compromise viability
same,clearance from the system,[7],cleared from the system within hours
same,GPP130 in cells after Mn,GPP130 [8],lacked GPP130
same,STxB reaching the ER (STxB-KDEL),GPP130 [8],STxB did not reach the ER
same,STxB trafficking from the cell surface to the Golgi,GPP130 [8],STxB accumulated in peripheral punctate structures resembling endosomes
same,ER-to-cell surface trafficking of vesicular stomatitis virus G protein,[9],did not affect
same,cell viability (MTT),HeLa cells [10],did not affect cell viability
same,epidermal growth factor (EGF) internalization and degradation,HeLa cells [11],did not affect
same,cholera toxin B-subunit (CTxB) trafficking,HeLa cells [12],no difference between Mn-treated and control cells
same,STx1-induced renal damage (kidney histology),mice [13],no STx1-induced renal damage
same,complete protection against lethal STx1 evident,mice [13],not
same,health and survival after lethal STx1,mice [13],all Mn-treated animals remained healthy and survived
same,protection against lethal STx1,mice [13],Complete protection
